Key:
[1] = test system: hepatocytes; test: Lactic acid generation in hepatocytes; type: cell-based, rat; conditions: MEM culture medium containing 5 mM or 25 mM D-glucose
Protocol: […] As a control, DMSO was added.
(§1) Cultured hepatocytes were incubated in an MEM culture medium containing 5 mM or 25 mM D-glucose with an action of promoting glucokinase transfer from nucleus to cytoplasm. Glucokinase transfer from nucleus to cytoplasm, glycogen synthesis and lactic acid generation were increased. Via glucose, glucokinase transfer from nucleus to cytoplasm occurs, which raises cytoplasmic glucokinase activity to possibly promote the sugar metabolism in liver. […] (FIGS. 4, 6, 7 and 8)

[2] = molecular target: T1, glucokinase (Rattus norvegicus, UniProt P17712); test: Glucokinase distribution in primary hepatocytes with D-glucose and D-fructose (fluorescence antibody method); type: cell-based
T1 construct: stained by a fluorescence antibody method using an anti-glucokinase antibody; endogenous in cells; host or cells: primary culture of hepatocytes from male Wistar rats
T1 sequence (P17712 1-465 isoform P17712-3): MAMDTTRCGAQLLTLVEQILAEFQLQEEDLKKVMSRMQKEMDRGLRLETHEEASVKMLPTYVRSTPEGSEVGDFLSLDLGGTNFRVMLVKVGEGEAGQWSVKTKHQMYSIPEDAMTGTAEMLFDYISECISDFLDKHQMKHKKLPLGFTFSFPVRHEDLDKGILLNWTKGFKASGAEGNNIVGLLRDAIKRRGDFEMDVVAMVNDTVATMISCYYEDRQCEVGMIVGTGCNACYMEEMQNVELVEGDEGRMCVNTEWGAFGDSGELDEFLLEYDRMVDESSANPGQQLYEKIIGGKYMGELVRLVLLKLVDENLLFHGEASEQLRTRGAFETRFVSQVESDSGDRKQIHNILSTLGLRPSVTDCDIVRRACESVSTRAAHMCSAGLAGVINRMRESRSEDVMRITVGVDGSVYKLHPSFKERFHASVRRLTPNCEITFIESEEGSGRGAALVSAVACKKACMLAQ
Protocol: In the presence of 5 mM D-glucose, glucokinase mainly existed in the cell nucleus.
as §1

[3] = test system: hepatocytes; test: Glycogen synthesis in cultured hepatocytes; type: cell-based, rat; conditions: MEM culture medium containing 5 mM or 25 mM D-glucose
Protocol: as §1

[4] = molecular target: T1, glucokinase; test: Hepatic glucokinase transfer from nucleus to cytoplasm after oral sugar given with D-glucose, Wistar rats (Example 3); type: in vivo; conditions: Wistar rats starved overnight; 2 g/kg D-glucose oral alone; 30 minutes later
Protocol: Male Wistar rats starved overnight were given 2 g/kg D-glucose orally. Simultaneously, 0.2 g/kg D-psicose, D-fructose or a mixture of D-psicose and D-fructose at 1:3 were given orally. Thirty minutes later, the rats were perfused and fixed with 4% para-formaldehyde under anesthesia, from which liver was immediately resected to prepare frozen sections. The distribution of glucokinase in the nucleus and the cytoplasm was analyzed with the fluorescence antibody method using an anti-glucokinase antibody. Simultaneously, blood was drawn out from the tail vein and the portal vein, to assay blood glucose levels.

[5] = molecular target: T1, glucokinase; test: Hepatic glucokinase transfer from nucleus to cytoplasm in Goto-Kakizaki rats (type 2 diabetes model); type: in vivo
Protocol: The action of suppressing blood glucose increase with D-fructose at a low concentration was examined. To Goto-Kakizaki rats as a model animal of type 2 diabetes mellitus, D-glucose to 2 g/[…] or D-glucose to 2 g/l kg body weight+D-fructose to 0.2 g/1 kg body weight was administered orally, to examine the modification of glucokinase transfer from the nucleus to the cytoplasm in hepatocytes and the change of the blood glucose levels in the portal vein and the tail vein.
2 g/kg D-glucose is orally given to male Goto-Kakizaki rats starved overnight. Simultaneously, 0.2 g/kg D-psicose was orally given. Thirty minutes later and 60 minutes later, the rats were perfused and fixed with 4% para-formaldehyde under anesthesia, from which liver was immediately resected to prepare frozen sections. The distribution of hepatic glucokinase in nucleus and cytoplasm was analyzed with the fluorescence antibody method using an anti-glucokinase antibody. Simultaneously, blood was drawn out from the tail vein and the portal vein, to assay blood glucose level and insulin concentration. Herein, liver is divided in the portal vein region and the central vein region of liver. It has been known that the activity of glucokinase in the central vein region is higher by 1.3 fold to 1.5 fold than the activity thereof in the portal vein region. Therefore, the glucokinase distributions in the nucleus and the cytoplasm in the central vein region and the portal vein region were analyzed.

[6] = 2 g/kg D-glucose oral alone, 30 and 60 minutes, vs starved

## O=C[C@H](O)[C@@H](O)[C@H](O)[C@H](O)CO [D-glucose]
[1]
  lactic acid generation: increased
[2]; 25 mM D-glucose, 37° C. for 30 minutes, vs 5 mM D-glucose
  cytoplasmic glucokinase: the cytoplasmic glucokinase was increased
[2]; MEM culture medium containing 5 mM or 25 mM D-glucose
  glucokinase transfer from nucleus to cytoplasm: increased
[3]
  glycogen synthesis: increased
[4]
  glucokinase transfer from the nucleus to the cytoplasm in hepatocytes: glucokinase transfer from the nucleus to the cytoplasm occurred slightly
[5]; [6]
  glucokinase fluorescence in the cytoplasm (liver): fluorescence in the cytoplasm was inversely increased
  glucokinase fluorescence in the nucleus (liver): Fluorescence in the nucleus was reduced
[5]; oral D-glucose alone
  glucokinase transfer from the nucleus to the cytoplasm in hepatocytes: glucokinase transferred from the nucleus to the cytoplasm
[5]; oral D-glucose vs 24-hour fasting, central vein and portal vein regions
  cytoplasmic glucokinase level (fluorescence intensity analysis): significantly increased

From patent US20140336267A1, “UTILIZATION OF THE FUNCTION OF RARE SUGAR AS PROMOTER FOR THE MIGRATION OF GLUCOKINASE FROM NUCLEUS TO CYTOPLASM” (NATIONAL UNIVERSITY CORPORATION KAGAWA UNIVERSITY, priority 2006, published 2014)
